# Assay results from patent US8846898B2, “Phosphinoamidite carboxylates and analogs thereof in the synthesis of oligonucleotide having reduced internucleotide charge” (Lieure Cornu LLC, priority 2000, dated 2014).
# [pace] = phosphonoacetate internucleotide linkage
# Tests used:
# [1] = target: DNase I (Bos taurus, UniProt P00639)
# Procedure: Radiolabeling of Oligodeoxynucleotides: ODNs were 5′ end-labeled using γ-^32P ATP and T4 polynucleotide kinase (Wu et al., “Purification and Sequence Analysis of Synthetic Oligodeoxyribonucleotides,” in Oligonucleotide Synthesis: A Practical Approach, Gait, Ed. (Oxford University Press, 1990)). […] The radiolabeled ODNs were purified by gel electrophoresis and ethanol precipitation.
# Endonuclease Stability: Endonuclease digestion experiments were carried out using DNase I (Boehringer-Mannheim). The assays were performed using a mixture of oligodeoxynucleotide labeled with ^32P at the 5′-end (100,000 cpm) and unlabeled oligodeoxynucleotide (40 pmol) in a buffer containing 40 mM Tris-HCl, pH 7.5, 6 mM MgCl2. Slight excess of the complementary DNA strand (1.2 eq.) was added and the mixture was heated to 95° C. for 5 minutes then chilled on ice for 30 minutes. Enzyme was added to a final concentration of 1 unit/μl (40 μl total reaction volume). The reaction mixture was overlayed with 25 μl of mineral oil and incubated at 37° C. Aliquots (3.5 μl) were removed and quenched by adding 7M urea in TBE buffer (12 μl) and heating to 95° C. for 5 minutes. […]
# The mixtures were heated to 95° C. for 5 minutes followed by slow cooling and incubation on ice for 30 minutes. The mixture was equilibrated to room temperature, DNase I added, and the reaction monitored as a function of time. […]
# [2] = test system: Phosphodiesterase I from Crotalus adamanteu (snake venom phosphodiesterase)
# [3] = target: E. coli RNaseH1 (Escherichia coli, UniProt P0A7Y4); test: Hydrolysis of RNA heteroduplexes with E. coli RNaseH1; type: biochemical; settings: 5′-32P RNA, two units RNaseH1, four hours at 37° C.
# E. coli RNaseH1, sequence (P0A7Y4 whole entry): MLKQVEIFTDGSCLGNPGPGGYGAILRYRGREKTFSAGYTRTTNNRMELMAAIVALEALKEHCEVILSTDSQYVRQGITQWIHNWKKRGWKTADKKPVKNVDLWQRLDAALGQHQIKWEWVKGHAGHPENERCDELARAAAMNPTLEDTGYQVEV
# DNase I, sequence (P00639 23-282): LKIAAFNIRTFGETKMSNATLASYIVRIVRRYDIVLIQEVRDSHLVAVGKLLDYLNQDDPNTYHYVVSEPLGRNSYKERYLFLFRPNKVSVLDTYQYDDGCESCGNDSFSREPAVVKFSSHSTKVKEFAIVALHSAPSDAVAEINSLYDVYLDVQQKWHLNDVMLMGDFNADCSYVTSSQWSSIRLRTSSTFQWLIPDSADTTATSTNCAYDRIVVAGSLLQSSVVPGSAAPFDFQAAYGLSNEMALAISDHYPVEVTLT
Substance,time to complete degradation by DNase I [1],degradation / hydrolysis products observed on incubation with DNase I [1],degradation / hydrolysis products observed on exposure to SVP [2],RNA degraded (converted to hydrolysis products) in the presence of the oligonucleotide and RNaseH1 [3]
phosphodiester ODN: 18-mer mixed sequence ODN 5′-CTCAAGTGGGCTGGTGAC-3′ containing internucleotide phosphodiester linkages (unmodified DNA) (unmodified DNA) [reference compound],≤ 1 h,–,–,–
"phosphonoacetate ODN: 18-mer mixed sequence ODN 5′-CTCAAGTGGGCTGGTGAC-3′ containing internucleotide phosphonoacetate linkages (DNA, all [pace], methylation of C not given here)",–,no degradation products,No detectable degradation products,approximately 66%
